Marks after values point to notes of the source that are not given here.
Assays:
[1] = test system: mouse IgG immunoglobulin; test: Functional plate assay of dye-GAM conjugates, LiCor Odyssey 700 channel; format: binding; details: GAM conjugated with 5× molar excess, FIG. 6-7
Protocol: Performance of dye-GAM and dye-GAR conjugates was evaluated in a functional assay. Wells of a 96-well black clear-bottom plate were coated with target protein mouse or rabbit IgG immunoglobulin. One hundred μl mouse or rabbit IgG, at 10 μg/ml, was applied to the corresponding wells in row 1. The target proteins were serially diluted 1:1 from the wells in rows 2 to 7 using 100 μl PBS. One hundred μl of samples from the wells in row 7 were discarded. One hundred μl PBS was added to the wells in row 8. Plates were incubated overnight at 4° C. and then blocked 2×200 μl with Thermo Scientific SuperBlock® Blocking Buffer. The coated plates were washed 2×200 μl with PBS-Tween and 1×200 μl with PBS. Based on the calculated concentrations, conjugates were diluted 1:250 (of 1 mg/ml) in PBS, added to the corresponding plates (100 μl/well) and then incubated for one hour in the dark. The plates were washed with 2×200 μl with PBS-Tween and 1×200 μl with PBS and filled with PBS buffer (100 μl/well) prior to scanning the black clear-bottom plates on LiCor Odyssey at 700 channel, to detect fluorescence intensity.
As shown in FIGS. 1-10, RFU and/or signal to background ratio (S/B) of the dyes conjugated to the indicated antibody were compared at various concentrations, using the indicated conjugation conditions.

[2] = test system: lamin B1 in U2OS cells; test: Immunofluorescence cell based assay, detection of lamin B1 with dye-GAR; details: for quenching with molar excess: lamin B1 experiment
Protocol: (§1) In the indicated experiments, the inventive compounds and commercial dye were evaluated for immunofluorescence in a cell based assay using the following protocol. Frozen U20S cell plates stored at −80° C. were thawed for 30 minutes at 50° C. Storage buffer (PBS) was removed and the cells were permeabilized for 15 minutes with 0.1% Triton-X100 in 1×PBS buffer (100 μl/well). The cell plate was blocked for 60 minutes in 2% BSA/PBS-0.1% Triton-X100. Primary antibody, either rabbit anti-lamin B1 or rabbit anti-HDAC2 (10 μg/ml), diluted in 2% BSA/PBS-0.1% Triton-X100 was added to the plate and incubated for one hour at room temperature. Control wells contained only 2% BSA/PBS-0.1% Triton-X100 blocker. After incubation, antibody solution was removed from the plate and the plate was washed three times with 100 μl/well PBS-0.5% Tween-20 and one time with 100 μl/well PBS. GAR secondary antibodies labeled with various molar excess of the inventive or commercial compound were diluted to 4 μg/ml in PBS and incubated for one hour at room temperature. Plates were washed three times with 100 μl/well PBST and once with 100 μl/well PBS, and Hoechst (diluted to 0.1 μg/ml in PBS) was added to each well (100 μl/well). The plates were scanned on ArrayScan Plate Reader.
Quantitative analysis of the data of FIGS. 11-13, expressed as Mean Total Intensity, which is the average total intensity of all pixels within a defined area or defined primary object such as a nucleus, is shown below; “Neg” indicates negative control.

[3] = test system: HDAC2 in U2OS cells; test: Immunofluorescence cell based assay, nuclear detection of HDAC2 with dye-GAR; details: for quenching with molar excess: HDAC2 experiment
Protocol: as §1
Quantitative analysis of the data of FIGS. 14-16, expressed as Mean Total Intensity, which is the average total intensity of all pixels within a defined area or defined primary object such as a nucleus, is shown below; “Neg” indicates negative control.

[4] = test system: ezrin in U2OS cells; test: Immunofluorescence cell based assay, detection of ezrin with dye-GAM; details: 2.5×-15× molar excess
Protocol: (§2) In the indicated experiments, the inventive compounds and commercial dye were evaluated for immunofluorescence in a cell based assay using the following protocol. Frozen U20S cell plates which were stored at −80° C. were thawed for 30 minutes at 50° C. Storage buffer (PBS) was removed and cells were permeabilized for 15 minutes with 0.1% Triton-X100 in 1×PBS buffer (100 μl/well). The cell plate was blocked for 60 minutes in 2% BSA/PBS-0.1% Triton-X100. Primary antibody, either mouse anti-ezrin (1.3 μg/ml) or mouse anti-NCoR2 (20 μg/ml), diluted in 2% BSA/PBS-0.1% Triton-X100 was added to the plate and incubated for one hour at room temperature. Control wells contained only 2% BSA/PBS-0.1% Triton-X100 blocker. After incubation, the antibody solution was removed from the plate and the plate was washed three times with 100 μl/well of PBS-0.5% Tween-20 and one time with 100 μl/well PBS. GAM secondary antibodies labeled with various molar excess of the inventive or commercial compound were diluted to 4 μg/ml in PBS and incubated for one hour at room temperature. […] The plates were scanned on ArrayScan Plate Reader.
Quantitative analysis of the data of FIGS. 17-19, expressed as Mean Total Intensity, which is the average total intensity of all pixels within a defined area or defined primary object such as a nucleus, is shown below; “Neg” indicates negative control.

[5] = test system: NCoR2 in U2OS cells; test: Immunofluorescence cell based assay, detection of NCoR2 with dye-GAM; details: for quenching with molar excess: NCoR2 experiment
Protocol: In the indicated experiments, the inventive compounds and commercial dye were evaluated for immunofluorescence in a cell based assay using the following protocol. Frozen U20S cell plates which were stored at −80° C. were thawed for 30 minutes at 50° C. Storage buffer (PBS) was removed and cells were permeabilized for 15 minutes with 0.1% Triton-X100 in 1×PBS buffer (100 μl/well). The cell plate was blocked for 60 minutes in 2% BSA/PBS-0.1% Triton-X100. Primary antibody, either mouse anti-ezrin (1.3 μg/ml) or mouse anti-NCoR2 (20 μg/ml), diluted in 2% BSA/PBS-0.1% Triton-X100 was added to the plate and incubated for one hour at room temperature. Control wells contained only 2% BSA/PBS-0.1% Triton-X100 blocker. After incubation, the antibody solution was removed from the plate and the plate was washed three times with 100 μl/well of PBS-0.5% Tween-20 and one time with 100 μl/well PBS. GAM secondary antibodies labeled with various molar excess of the inventive or commercial compound were diluted to 4 μg/ml in PBS and incubated for one hour at room temperature. The plates were washed three times with 100 μl/well of PBST and once with 100 μl/well PBS, and Hoechst (diluted to 0.1 μg/ml in PBS) was added to each well (100 μl/well). The plates were scanned on ArrayScan Plate Reader.
NCoR2 was detected in U2OS cells with V03-07005-GAM, V08-16072-GAM, V13-06190-GAM, V17-03019-GAM, DyLight 680-GAM, and Alexa Fluor 680-GAM at a 2.5×, 5×, 10×, and 15× molar excesses. Quantitative analysis of the data, expressed as Mean Total Intensity, which is the average total intensity of all pixels within a defined area or defined primary object such as a nucleus, is shown below, where “Neg” indicates the negative control condition.

[6] = Excitation/emission properties of dye NHS esters; format: physicochemical
From the text: The following properties of V03-07005, V08-16072, V13-06190, and V17-03019 were compared with commercially available dyes. DyLight 680 NHS is a non-pegylated benzopyrylium dye and the ‘V’ dyes are pegylated dyes described above.

[7] = test system: U2OS cells; test: Immunofluorescence cell based assays, overall summary; details: summary of all immunofluorescence experiments
Protocol: as §1
as §2, with “blocker.” for “blocker. After incubation, the antibody solution was removed from the plate and the plate was washed three times with 100 μl/well of PBS-0.5% Tween-20 and one time with 100 μl/well PBS. GAM secondary antibodies labeled with various molar excess of the inventive or commercial compound were diluted to 4 μg/ml in PBS and incubated for one hour at room temperature.”

| Structure (SMILES) | Ex ([6]; EtOH) | Ex ([6]; PBS) | Em [6] [nm] | further results |
| --- | --- | --- | --- | --- |
| COCCOCCOCCOCCN(CCOCCOCCOCCOC)c1ccc2c(C(C)(C)C)cc(/C=C/C=C3/N(CCCS(=O)(=O)[O-])c4ccc(S(=O)(=O)[O-])cc4C3(C)CCCC(=O)O)[o+]c2c1.[Na+] (stereo not shown) [Compound V03-07005, (E)-2-((E)-3-(4-tert-butyl-7-(di2,5,8,11-tetraoxatridecan-13-ylamino)chromenylium-2-yl)allylidene)-3-(3-carboxypropyl)-3-methyl-1-(3-sulfonatopropyl)indoline-5-sulfonate] | 690 nm | about 675 nm | – | binding intensity (RFU), in words [1]: performed best of the benzopyrylium dyes; staining / S/B performance, in words ([2]; lamin B1, 2.5×-15× molar excess): best performing benzopyrylium dye; staining / S/B performance, in words ([3]; HDAC2, 2.5×-15× molar excess): best performing benzopyrylium dye; staining / S/B performance, in words [4]: best performing benzopyrylium dye; staining / S/B performance, in words ([5]; NCoR2, 2.5×-15× molar excess): best performing benzopyrylium dye; staining performance, in words [7]: best performing benzopyrylium dye |
| COCCOCCOCCOCCN(CCCS(=O)(=O)[O-])c1ccc2c(C(C)(C)C)cc(/C=C/C=C3/N(CCOCCOCCOCCOCCC(=O)O)c4ccc(S(=O)(=O)[O-])cc4C3(C)CCCS(=O)(=O)[O-])[o+]c2c1.[Na+].[Na+] (stereo not shown) [Compound V13-06190, (E)-2-((E)-3-(4-tert-butyl-7-((3-sulfonatopropyl)(2,5,8,11-tetraoxatridecan-13-yl)amino)chromenylium-2-yl)allylidene)-1-(14-carboxy-3,6,9,12-tetraoxatetradecyl)-3-methyl-3-(3-sulfonatopropyl)indoline-5-sulfonate] | 690 nm | about 675 nm | – | quenching with molar excess [2]: gradually quenching from 2.5× molar excess condition; quenching with molar excess [3]: gradually quenching from 2.5× molar excess condition; quenching with molar excess [5]: gradually quenched from the 2.5× molar excess condition; quenching with molar excess [7]: gradual quenching from 2.5× molar excess condition |
| COCCOCCOCCOCCN(CCOCCOCCOCCOC)c1ccc2c(C(C)(C)C)cc(/C=C/C=C3/N(CCCS(=O)(=O)[O-])c4ccc(S(=O)(=O)[O-])cc4C3(C)CCCC(=O)ON3C(=O)CCC3=O)[o+]c2c1.[Na+] (stereo not shown) [V03-07005-NHS] | 690 (EtOH) nm | 675 (PBS)* nm | 708 | – |
| COCCOCCOCCOCCN(CCCS(=O)(=O)[O-])c1ccc2c(C(C)(C)C)cc(/C=C/C=C3/N(CCCCCC(=O)ON4C(=O)CCC4=O)c4ccc(S(=O)(=O)[O-])cc4C3(C)CCCS(=O)(=O)[O-])[o+]c2c1.[Na+].[Na+] (stereo not shown) [V08-16072-NHS] | 691 (EtOH) nm | 679 (PBS)* nm | 712 | – |
| COCCOCCOCCOCCN(CCCS(=O)(=O)[O-])c1ccc2c(C(C)(C)C)cc(/C=C/C=C3/N(CCOCCOCCOCCOCCC(=O)ON4C(=O)CCC4=O)c4ccc(S(=O)(=O)[O-])cc4C3(C)CCCS(=O)(=O)[O-])[o+]c2c1.[Na+].[Na+] (stereo not shown) [V13-06190-NHS] | 691 (EtOH) nm | 679 (PBS)* nm | 712 | – |

Second part, led by results:

| Ex ([6]; EtOH) | Ex ([6]; PBS) | Em [6] [nm] | Structure (SMILES) | further results |
| --- | --- | --- | --- | --- |
| 690 nm | about 675 nm | – | COCCOCCOCCOCCN(CCCS(=O)(=O)[O-])c1ccc2c(C(C)(C)C)cc(/C=C/C=C3/N(CCCCCC(=O)O)c4ccc(S(=O)(=O)[O-])cc4C3(C)CCCS(=O)(=O)[O-])[o+]c2c1.[Na+].[Na+] (stereo not shown) [Compound V08-16072, (E)-2-((E)-3-(4-tert-butyl-7-((3-sulfonatopropyl)(2,5,8,11-tetraoxatridecan-13-yl)amino)chromenylium-2-yl)allylidene)-1-(5-carboxypentyl)-3-methyl-3-(3-sulfonatopropyl)indoline-5-sulfonate] | quenching with molar excess [2]: gradually quenching from 2.5× molar excess condition; quenching with molar excess [3]: gradually quenching from 2.5× molar excess condition; quenching with molar excess [5]: gradually quenched from the 2.5× molar excess condition; quenching with molar excess [7]: gradual quenching from 2.5× molar excess condition |
| 690 nm | about 675 nm | – | COCCOCCOCCOCCN(CCCS(=O)(=O)[O-])c1ccc2c(C(C)(C)C)cc(/C=C/C=C3/N(CCCS(=O)(=O)[O-])c4ccc(S(=O)(=O)[O-])cc4C3(C)CCCC(=O)O)[o+]c2c1.[Na+].[Na+] (stereo not shown) [Compound V17-03019, (E)-2-((E)-3-(4-tert-butyl-7-((3-sulfonatopropyl)(2,5,8,11-tetraoxatridecan-13-yl)amino)chromenylium-2-yl)allylidene)-3-(3-carboxypropyl)-3-methyl-1-(3-sulfonatopropyl)indoline-5-sulfonate] | – |
| 691 (EtOH) nm | 675 (PBS)* nm | 712 | COCCOCCOCCOCCN(CCCS(=O)(=O)[O-])c1ccc2c(C(C)(C)C)cc(/C=C/C=C3/N(CCCS(=O)(=O)[O-])c4ccc(S(=O)(=O)[O-])cc4C3(C)CCCC(=O)ON3C(=O)CCC3=O)[o+]c2c1.[Na+].[Na+] (stereo not shown) [V17-03019-NHS] | – |

Source: patent US10174045B2, “Benzopyrylium compounds” (Pierce Biotechnology, Inc., priority 2012, dated 2019)
